Data reported in paper PMC10503797, “Allosteric modulator potentiates β2AR agonist–promoted bronchoprotection in asthma models” (The Journal of Clinical Investigation, 2023).
“And” between values parts separate entries of the source, which are not always exact repeats. Equal entries are not always repeated.

Experiments:
C57BL/6J naive mice [1] = experiment: In vivo bronchoprotection protocol, methacholine-induced airway constriction (flexiVent); set-up: Newtonian resistance (Rn): unit not given here; conditions: for Newtonian resistance (Rn): Cmpd-6 10 mg/kg i.v., 10 mg/kg
Method: (§1) For the bronchoprotection protocol (A), bronchospasm was induced by i.v. administration of methacholine (25, 50, 100, 200, and 400 μg/kg). […] General Linear Model repeated measures ANOVA with Tukey’s posthoc test was used to determine the differences of airway responsiveness between DMSO- and Cmpd-6–treated conditions.
(§2) Airway hyperresponsiveness (AHR) was measured using the forced oscillation technique as described previously ([42]). […] For the bronchoprotection protocol, bronchospasm was induced by jugular vein i.v. administration of increasing doses of methacholine (25, 50, 100, 200, 400 μg/kg). […] Mice were ventilated with 100% oxygen at 150 breaths per minute, constant volume of 8 mL/kg and a 3 cm H2O positive end–expiratory pressure using a computer-controlled small animal ventilator (flexiVent, SCIREQ). The total lung impedance signal collected contained information about the resistance and elastance properties of the lung from which Newtonian resistance (Rn), a good indicator of the luminal diameter of the conducting airways, was calculated using the constant phase model. The heart rate data acquired using EKG electrodes was monitored to assess mouse viability and analgesia throughout the bronchoconstrictor protocols.

guinea pig β2AR = guinea pig β2AR (Cavia porcellus, UniProt Q8K4Z4); experiment: GloSensor cAMP, constitutive activity of overexpressed guinea pig β2AR
murine V133F mutant β2AR = target: T1, murine V133F mutant β2AR (Mus musculus, UniProt P18762, V133F); experiment: GloSensor cAMP, constitutive activity of overexpressed murine V133F mutant β2AR; assay type: cell-based; conditions: Cmpd-6 at 5 μM, no orthosteric agonist
T1 construct: expressed in transfected cells; HEK293 GloSensor cells (cAMP assay)

C57BL/6J naive mice [2] = experiment: In vivo bronchodilation protocol, albuterol in methacholine-preconstricted airways (flexiVent); conditions: Cmpd-6 10 mg/kg i.v.; methacholine […] + albuterol 1-30 μg/kg
Method: as §1, §2

murine WT β2AR = target: T2, murine WT β2AR (Mus musculus, UniProt P18762); experiment: GloSensor cAMP, constitutive activity of overexpressed murine WT β2AR; assay type: cell-based
T2 construct: expressed in transfected cells; HEK293 GloSensor cells (cAMP assay)

V133F mutant murine β2AR = V133F mutant murine β2AR (Mus musculus, UniProt P18762, V133F); experiment: 125I-CYP radioligand competition binding, V133F mutant murine β2AR; conditions: V133F Cmpd-6
Method: (§3) Statistical analyses were performed using 1-way ANOVA, repeated (related) measures with Tukey’s posthoc test.

WT murine β2AR = WT murine β2AR (Mus musculus, UniProt P18762); experiment: 125I-CYP radioligand competition binding, WT murine β2AR; conditions: WT Cmpd-6
WT murine β2AR, sequence (P18762 whole entry): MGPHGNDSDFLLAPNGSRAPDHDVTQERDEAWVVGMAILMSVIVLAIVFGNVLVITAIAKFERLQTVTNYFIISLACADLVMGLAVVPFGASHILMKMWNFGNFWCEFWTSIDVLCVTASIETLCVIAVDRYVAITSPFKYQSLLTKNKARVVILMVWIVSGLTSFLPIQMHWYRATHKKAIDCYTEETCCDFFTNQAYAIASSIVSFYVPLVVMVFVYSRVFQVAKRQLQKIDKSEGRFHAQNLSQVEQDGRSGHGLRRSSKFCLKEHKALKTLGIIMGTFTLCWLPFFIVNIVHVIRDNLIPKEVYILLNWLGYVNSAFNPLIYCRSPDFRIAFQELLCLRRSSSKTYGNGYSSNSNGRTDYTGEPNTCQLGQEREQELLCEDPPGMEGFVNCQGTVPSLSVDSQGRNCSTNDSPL
Method: as §3

T2 sequence (P18762 whole entry): as above
T1 sequence (P18762 whole entry V133F): as the sequence (P18762 whole entry) above, with V133F counted along it
V133F mutant murine β2AR, sequence (P18762 whole entry V133F): as the sequence (P18762 whole entry) above, with V133F counted along it
guinea pig β2AR, sequence (Q8K4Z4 whole entry): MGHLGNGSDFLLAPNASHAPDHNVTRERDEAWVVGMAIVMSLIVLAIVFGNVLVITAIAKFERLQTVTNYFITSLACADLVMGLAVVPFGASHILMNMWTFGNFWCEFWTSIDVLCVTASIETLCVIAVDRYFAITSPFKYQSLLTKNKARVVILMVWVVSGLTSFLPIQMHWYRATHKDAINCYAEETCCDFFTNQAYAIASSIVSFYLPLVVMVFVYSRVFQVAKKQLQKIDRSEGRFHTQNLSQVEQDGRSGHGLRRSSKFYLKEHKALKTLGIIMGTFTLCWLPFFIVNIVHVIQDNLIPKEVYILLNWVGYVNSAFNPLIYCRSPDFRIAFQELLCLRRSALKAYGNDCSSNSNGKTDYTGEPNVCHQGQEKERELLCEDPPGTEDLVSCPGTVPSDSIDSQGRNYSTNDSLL

- 125I-CYP binding (% of maximal) (V133F mutant murine β2AR; log[ISO] -5.69897 M): 2.898% and 2.7378% and 2.508% and 2.41%
- 125I-CYP binding (% of maximal) (V133F mutant murine β2AR; log[ISO] -6.30103 M): 7.927% and 6.9353% and 6.15% and 6.231%
- 125I-CYP binding (% of maximal) (WT murine β2AR; log[ISO] -4.49485 M): 1.8839% and 1.834% and 1.807% and 2.135%
- 125I-CYP binding (% of maximal) (WT murine β2AR; log[ISO] -5.09691 M): 4.237% and 3.492% and 3.782% and 5.55%
Structure (SMILES): COc1ccc(Sc2ccc(S(=O)(=O)N(C)C(C)C)cc2C(=O)N[C@H](CC(N)=O)Cc2ccc(C(C)(C)C)cc2)cc1 [Cmpd-6]
- Bronchoprotective effect against methacholine-induced airway resistance (C57BL/6J naive mice [1]; Cmpd-6 10 mg/kg i.v. 10 minutes before methacholine): no bronchoprotective effect
- Newtonian resistance (Rn) (C57BL/6J naive mice [1]; Mch 0 μg/kg): 0.362 and 0.310 and 0.287 and 0.300 and 0.311
- Newtonian resistance (Rn) (C57BL/6J naive mice [1]; Mch 25 μg/kg): 0.550 and 0.482 and 0.346 and 0.471 and 0.465
- Newtonian resistance (Rn) (C57BL/6J naive mice [1]; Mch 50 μg/kg): 0.728 and 0.671 and 0.387 and 0.670 and 0.609
- Newtonian resistance (Rn) (C57BL/6J naive mice [1]; Mch 100 μg/kg): 0.886 and 0.904 and 0.565 and 0.976 and 0.931
- Newtonian resistance (Rn) (C57BL/6J naive mice [1]; Mch 200 μg/kg): 1.570 and 1.261 and 0.919 and 1.518 and 1.725
- Newtonian resistance (Rn) (C57BL/6J naive mice [1]; Mch 400 μg/kg): 1.986 and 1.405 and 1.093 and 1.461 and 1.642
- cAMP, constitutive activity of overexpressed β2AR (Figure 4C) (guinea pig β2AR; Species of β2AR: Guinea pig): 48.9693 and 55.2023 and 45.6589 and 55.6328
- PAM activity in cAMP production induced by constitutive activity of overexpressed guinea pig β2AR (guinea pig β2AR; no orthosteric agonist, 20 minutes): equivalent to what we observed with the overexpressed human receptor
- cAMP level (% of ISO-stimulated maximal response) (murine V133F mutant β2AR): 45.8463% and 58.5082% and 46.5958% and 56.3694%
- Effect on albuterol-mediated bronchodilation (C57BL/6J naive mice [2]): no enhancing effect
- cAMP level (% of ISO-stimulated maximal response) (murine WT β2AR; Cmpd-6 at 5 μM, no orthosteric agonist, Murine WT): 25.8782% and 38.8997% and 33.0059% and 37.3496%
- cAMP, constitutive activity of overexpressed β2AR (Figure 4C) (murine WT β2AR; Species of β2AR: Murine): 25.8782 and 38.8997 and 33.0059 and 37.3496
- 125I-CYP binding (% of maximal) (V133F mutant murine β2AR; log[ISO] -4 M): 0.3208% and 0.5206% and 0.2622% and 0.2602%
- 125I-CYP binding (% of maximal) (V133F mutant murine β2AR; log[ISO] -4.49485 M): 0.9301% and 1.21% and 0.9752% and 0.9507%
- 125I-CYP binding (% of maximal) (V133F mutant murine β2AR; log[ISO] -5.09691 M): 1.3005% and 2.025% and 1.333% and 1.6451%
- 125I-CYP binding (% of maximal) (V133F mutant murine β2AR; log[ISO] -6.90309 M): 15.2419% and 14.4367% and 12.7613% and 13.8675%
- 125I-CYP binding (% of maximal) (V133F mutant murine β2AR; log[ISO] -7.50515 M): 33.0019% and 29.7875% and 27.3642% and 30.2603%
- 125I-CYP binding (% of maximal) (V133F mutant murine β2AR; log[ISO] -8.10721 M): 56.9542% and 53.726% and 49.4673% and 52.7312%
- 125I-CYP binding (% of maximal) (V133F mutant murine β2AR; log[ISO] -8.70927 M): 79.9915% and 78.4975% and 76.4167% and 78.5935%
- 125I-CYP binding (% of maximal) (V133F mutant murine β2AR; log[ISO] -9.31133 M): 94.8693% and 96.2982% and 94.9618% and 94.6481%
- 125I-CYP binding (% of maximal) (V133F mutant murine β2AR; log[ISO] -9.91339 M): 100.835% and 99.7406% and 98.19% and 100.221%
- 125I-CYP binding (% of maximal) (V133F mutant murine β2AR; no ISO competitor): 103.118% and 101.321% and 102.31% and 102.083%
- 125I-CYP binding (% of maximal) (WT murine β2AR; log[ISO] -4 M): 0.36% and 0.2162% and 0.04816% and -0.00042%
- 125I-CYP binding (% of maximal) (WT murine β2AR; log[ISO] -5.69897 M): 11.5444% and 11.0871% and 11.3959% and 13.7676%
- 125I-CYP binding (% of maximal) (WT murine β2AR; log[ISO] -6.30103 M): 26.4647% and 27.054% and 29.2061% and 34.2195%
- 125I-CYP binding (% of maximal) (WT murine β2AR; log[ISO] -6.90309 M): 53.3668% and 53.0846% and 55.6007% and 58.7138%
- 125I-CYP binding (% of maximal) (WT murine β2AR; log[ISO] -7.50515 M): 77.7987% and 78.0629% and 80.5466% and 83.0218%
- 125I-CYP binding (% of maximal) (WT murine β2AR; log[ISO] -8.10721 M): 94.1342% and 94.186% and 93.5984% and 92.8613%
- 125I-CYP binding (% of maximal) (WT murine β2AR; log[ISO] -8.70927 M): 97.914% and 99.3549% and 97.9296% and 99.6433%
- 125I-CYP binding (% of maximal) (WT murine β2AR; log[ISO] -9.31133 M): 100.454% and 99.5549% and 102.315% and 101.138%
- 125I-CYP binding (% of maximal) (WT murine β2AR; log[ISO] -9.91339 M): 102.683% and 102.302% and 101.203% and 102.316%
- 125I-CYP binding (% of maximal) (WT murine β2AR; no ISO competitor): 100.129% and 100.082% and 100.868% and 101.552%
